Assay results as given in the NIST ThermoML archive (doi:10.1021/je700339f).
± gives the expanded uncertainty stated by the source.

Assay: xn = mol fraction of the nth substance listed
Details: 298 K, Liquid

ClCCCCCl [1,4-dichlorobutane] + CN(C)C=O
mass density (5000 kPa, x2 = 0.2994): 1091.6 ± 4.3 kg/m3
mass density (5000 kPa, x2 = 0.4006): 1074.8 ± 4.3 kg/m3
mass density (5000 kPa, x2 = 0.5022): 1055.9 ± 4.4 kg/m3
mass density (5000 kPa, x2 = 0.6004): 1037.4 ± 4.5 kg/m3
mass density (5000 kPa, x2 = 0.7029): 1016.4 ± 4.7 kg/m3
mass density (5000 kPa, x2 = 0.7943): 996.7 ± 5 kg/m3
mass density (5000 kPa, x2 = 0.9006): 972.1 ± 5.1 kg/m3
mass density (5500 kPa, x2 = 0.1003): 1123.1 ± 4.5 kg/m3
mass density (5500 kPa, x2 = 0.1923): 1109.2 ± 4.4 kg/m3
mass density (5500 kPa, x2 = 0.2994): 1091.9 ± 4.3 kg/m3
mass density (5500 kPa, x2 = 0.4006): 1075.1 ± 4.4 kg/m3
mass density (5500 kPa, x2 = 0.5022): 1056.2 ± 4.4 kg/m3
mass density (5500 kPa, x2 = 0.6004): 1037.7 ± 4.5 kg/m3
mass density (5500 kPa, x2 = 0.7029): 1016.8 ± 4.7 kg/m3
mass density (5500 kPa, x2 = 0.7943): 996.9 ± 5 kg/m3
mass density (5500 kPa, x2 = 0.9006): 972.3 ± 5.1 kg/m3
mass density (6000 kPa, x2 = 0.1003): 1123.4 ± 4.5 kg/m3
mass density (6000 kPa, x2 = 0.1923): 1109.5 ± 4.4 kg/m3
mass density (6000 kPa, x2 = 0.2994): 1092.3 ± 4.3 kg/m3
mass density (6000 kPa, x2 = 0.4006): 1075.4 ± 4.4 kg/m3
mass density (6000 kPa, x2 = 0.5022): 1056.6 ± 4.4 kg/m3
mass density (6000 kPa, x2 = 0.6004): 1038.1 ± 4.5 kg/m3
mass density (6000 kPa, x2 = 0.7029): 1017 ± 4.7 kg/m3
mass density (6000 kPa, x2 = 0.7943): 997.3 ± 5 kg/m3
mass density (6000 kPa, x2 = 0.9006): 972.6 ± 5.1 kg/m3
mass density (6500 kPa, x2 = 0.1003): 1123.8 ± 4.5 kg/m3
mass density (6500 kPa, x2 = 0.1923): 1109.9 ± 4.4 kg/m3
mass density (6500 kPa, x2 = 0.2994): 1092.6 ± 4.3 kg/m3
mass density (6500 kPa, x2 = 0.4006): 1075.9 ± 4.4 kg/m3
mass density (6500 kPa, x2 = 0.5022): 1057 ± 4.5 kg/m3
mass density (6500 kPa, x2 = 0.6004): 1038.4 ± 4.5 kg/m3
mass density (6500 kPa, x2 = 0.7029): 1017.5 ± 4.7 kg/m3
mass density (6500 kPa, x2 = 0.7943): 997.6 ± 5 kg/m3
mass density (6500 kPa, x2 = 0.9006): 972.9 ± 5.1 kg/m3
mass density (7000 kPa, x2 = 0.1003): 1124.2 ± 4.5 kg/m3
mass density (7000 kPa, x2 = 0.1923): 1110.3 ± 4.4 kg/m3
mass density (7000 kPa, x2 = 0.2994): 1093 ± 4.3 kg/m3
mass density (7000 kPa, x2 = 0.4006): 1076.2 ± 4.4 kg/m3
mass density (7000 kPa, x2 = 0.5022): 1057.2 ± 4.4 kg/m3
mass density (7000 kPa, x2 = 0.6004): 1038.8 ± 4.5 kg/m3
mass density (7000 kPa, x2 = 0.7029): 1017.8 ± 4.7 kg/m3
mass density (7000 kPa, x2 = 0.7943): 997.9 ± 5 kg/m3
mass density (7000 kPa, x2 = 0.9006): 973.3 ± 5.1 kg/m3
mass density (7500 kPa, x2 = 0.1003): 1124.6 ± 4.5 kg/m3
mass density (7500 kPa, x2 = 0.1923): 1110.7 ± 4.4 kg/m3
mass density (7500 kPa, x2 = 0.2994): 1093.4 ± 4.3 kg/m3
mass density (7500 kPa, x2 = 0.4006): 1076.6 ± 4.4 kg/m3
mass density (7500 kPa, x2 = 0.5022): 1057.6 ± 4.5 kg/m3
mass density (7500 kPa, x2 = 0.6004): 1039.1 ± 4.6 kg/m3
mass density (7500 kPa, x2 = 0.7029): 1018 ± 4.7 kg/m3
mass density (7500 kPa, x2 = 0.7943): 998.3 ± 5 kg/m3
mass density (7500 kPa, x2 = 0.9006): 973.6 ± 5.1 kg/m3
mass density (8000 kPa, x2 = 0.1003): 1124.9 ± 4.5 kg/m3
mass density (8000 kPa, x2 = 0.1923): 1111 ± 4.4 kg/m3
mass density (8000 kPa, x2 = 0.2994): 1093.7 ± 4.3 kg/m3
mass density (8000 kPa, x2 = 0.4006): 1076.9 ± 4.4 kg/m3
mass density (8000 kPa, x2 = 0.5022): 1057.9 ± 4.5 kg/m3
mass density (8000 kPa, x2 = 0.6004): 1039.4 ± 4.5 kg/m3
mass density (8000 kPa, x2 = 0.7029): 1018.4 ± 4.7 kg/m3
mass density (8000 kPa, x2 = 0.7943): 998.5 ± 5 kg/m3
mass density (8000 kPa, x2 = 0.9006): 973.9 ± 5.1 kg/m3
mass density (8500 kPa, x2 = 0.1003): 1125.2 ± 4.5 kg/m3
mass density (8500 kPa, x2 = 0.1923): 1111.4 ± 4.4 kg/m3
mass density (8500 kPa, x2 = 0.2994): 1094 ± 4.3 kg/m3
mass density (8500 kPa, x2 = 0.4006): 1077.2 ± 4.4 kg/m3
mass density (8500 kPa, x2 = 0.5022): 1058.3 ± 4.5 kg/m3
mass density (8500 kPa, x2 = 0.6004): 1039.7 ± 4.6 kg/m3
mass density (8500 kPa, x2 = 0.7029): 1018.7 ± 4.7 kg/m3
mass density (8500 kPa, x2 = 0.7943): 998.9 ± 5 kg/m3
mass density (8500 kPa, x2 = 0.9006): 974.2 ± 5.1 kg/m3
mass density (9000 kPa, x2 = 0.1003): 1125.6 ± 4.5 kg/m3
mass density (9000 kPa, x2 = 0.1923): 1111.8 ± 4.4 kg/m3
mass density (9000 kPa, x2 = 0.2994): 1094.4 ± 4.3 kg/m3
mass density (9000 kPa, x2 = 0.4006): 1077.6 ± 4.4 kg/m3
mass density (9000 kPa, x2 = 0.5022): 1058.7 ± 4.5 kg/m3
mass density (9000 kPa, x2 = 0.6004): 1040.1 ± 4.6 kg/m3
mass density (9000 kPa, x2 = 0.7029): 1019.1 ± 4.7 kg/m3
mass density (9000 kPa, x2 = 0.7943): 999.2 ± 5 kg/m3
mass density (9000 kPa, x2 = 0.9006): 974.5 ± 5.1 kg/m3
mass density (9500 kPa, x2 = 0.1003): 1126 ± 4.6 kg/m3
mass density (9500 kPa, x2 = 0.1923): 1112.2 ± 4.4 kg/m3
mass density (9500 kPa, x2 = 0.2994): 1094.8 ± 4.3 kg/m3
mass density (9500 kPa, x2 = 0.4006): 1078 ± 4.4 kg/m3
mass density (9500 kPa, x2 = 0.5022): 1059 ± 4.5 kg/m3
mass density (9500 kPa, x2 = 0.6004): 1040.4 ± 4.6 kg/m3
mass density (9500 kPa, x2 = 0.7029): 1019.4 ± 4.7 kg/m3
mass density (9500 kPa, x2 = 0.7943): 999.5 ± 5 kg/m3
mass density (9500 kPa, x2 = 0.9006): 974.8 ± 5.1 kg/m3
mass density (10000 kPa, x2 = 0.1003): 1126.4 ± 4.6 kg/m3
mass density (10000 kPa, x2 = 0.1923): 1112.6 ± 4.5 kg/m3
mass density (10000 kPa, x2 = 0.2994): 1095.2 ± 4.4 kg/m3
mass density (10000 kPa, x2 = 0.4006): 1078.4 ± 4.4 kg/m3
